Assay results taken from US20110010780A1, “KCNN3 AS DIAGNOSTIC AND THERAPEUTIC TARGET FOR NEURODEGENERATIVE DISEASES” (EVOTEC NeuroSciences GmbH, priority 2005, published 2011).

Experiments:
SK-channels = conditions: all SK-channels, rather unspecifically; cited from earlier work
KCNN3 [1] = target: T1, KCNN3 (Homo sapiens, UniProt Q9UGI6, DUP76-80); assay: Z′-value assessment of the cellular KCNN3 screening assay with fluoxetine; format: cell-based; conditions: CHO-KCNN3 cells, 100 μM fluoxetine, ionomycin 500 nM
T1 construct: expressed in transfected cells
Method: The difference of the fluorescence intensity before addition of ionomycin and after the 120 seconds incubation period was determined where the cells were incubated with fluoxetine. The influx of calcium mediated by ionomycin leads to an opening of the channels and a subsequent hyperpolarization of the resting membrane potential of the cells. […] The mean value of the difference of the fluorescence in presence of ionomycin and fluoxetine in the above experiment is 15912 rfu (standard deviation 3636 rfu) and the mean value of the fluorescence of cells in presence of ionomycin only is 124086 rfu (standard deviation 12615 rfu). The Z′-value is calculated to be 0.55. The Z′ in a second series of experiments was determined to be 0.59.
In order to optimize the KCNN3 assay for screening purposes the Z′-value was assessed (FIG. 16). After 24 hours of incubation the medium was removed from a 384-well plate where CHO-KCNN3 cells were grown. 20 μl dye solution in assay buffer was pipetted onto the cells and afterwards another 20 μl assay buffer only or 20 μl assay buffer plus 100 μM fluoxetine was added. After 30 minutes of incubation at 37 ° C. the plate was transferred to the automated pipetting device/fluorescence reader (FlexStation, Molecular Devices) and 10 μl ionomycin was added at a final concentration of 500 nM. Fluorescence was then measured for 120 sec every 10 sec. […]

[2] = test system: CHO wild type cells (CHO/−); assay: cellular membrane potential assay in CHO wild type cells (control cell line); format: cell-based
Method: (§1) The minimum fluorescence values during the following 5 minutes measurement period were subtracted from the maximum signal recorded at the beginning of the experiment and plotted against the concentration of the substances.
The assay makes use of membrane potential sensitive, fluorescent dyes and the activation of the calcium-sensitive KCNN3-potassium channel by the addition of ionomycin. Upon entry of calcium into the cells KCNN3 is activated and thus impacts on the resting membrane potential of the cells which is mirrored by the fluorescent dye. In more detail: CHO cells expressing KCNN3 are cultured on black 384-well plates with clear bottom at a density of 1.5.104 for 24 hours in a humidified incubator at 37° C. The cell culture medium is replaced with assay buffer (1 mM KCl, 2.3 mM CaCl2, 5 mM NaHCO3, 1 mM MgCl2, 154 mM NaCl, 5.5 mM d(+)-glucose, 5 mM HEPES, pH 7.4) containing 5 μM DiBAC4(3). After 30 min of cell loading with the dye at 37° C. fluorescence (excitation 488 nm, emission 538 nm) is read by using a fluorescence plate reader (Flex-station, Molecular Devices). Activation of KCNN3 is achieved by the addition of ionomycin at a 1μM final concentration (FIGS. 14 and 15). […] Fluorescence is monitored for a period of 5 min.

KCNN3 [3] = target: T1, KCNN3; assay: cellular KCNN3 screening assay (membrane potential dye DiBAC4(3), ionomycin activation) in CHO/KCNN3 cells; format: cell-based; conditions: incubated 30 minutes before ionomycin (1 μM final), fluorescence over 5 minutes
Method: Upon entry of calcium into the cells the potassium channel is activated and thus impacts on the resting membrane potential of the cells which is mirrored by the fluorescent dye. The minimum fluorescence values measured during the following 5 minutes period were subtracted from the maximum signal recorded at the beginning of the experiment and plotted against the concentration of the substances incubated with the cells. The values obtained in the absence and at the lowest concentrations are indicative of a fully active potassium channel which leads to a hyperpolarization of the membrane potential.
as §1
The assay makes use of membrane potential sensitive, fluorescent dyes and the activation of the calcium-sensitive KCNN3-potassium channel by the addition of ionomycin. Upon entry of calcium into the cells KCNN3 is activated and thus impacts on the resting membrane potential of the cells which is mirrored by the fluorescent dye. […] After 30 min of cell loading with the dye at 37° C. fluorescence (excitation 488 nm, emission 538 nm) is read by using a fluorescence plate reader (Flex-station, Molecular Devices). […] Fluorescence is monitored for a period of 5 min.

Question: Which “block of SK-channels, potency” value (SK-channels) does the source give for `c1cc2cc(c1)C[n+]1ccc(c3ccccc31)NCc1ccc(cc1)CNc1cc[n+](c3ccccc13)C2` [UCL-1684] here?
Answer: Its value is “lesser potency compared to the toxins”.

Question: What does the source list for `CNCCC(Oc1ccc(C(F)(F)F)cc1)c1ccccc1` (stereo not shown) [fluoxetine]?
Answer: mean value of the difference of the fluorescence before addition of ionomycin and after 120 seconds (KCNN3 [1]; 30 minutes, standard deviation 3636 rfu): 15912 rfu; block of the KCNN3 ion channel (KCNN3 [1]): the ion channel is blocked

Question: For `CC[N+](CC)(CC)CCOc1cccc(OCC[N+](CC)(CC)CC)c1OCC[N+](CC)(CC)CC` [gallamine], which “block of SK-channels, potency” value (SK-channels) is on record?
Answer: The value was “lesser potency compared to the toxins”.

Question: With `C[C@H](CCC(=O)O)C[C@H](C)C[C@H](C)C(=O)/C=C(\O)[C@H](C)C[C@H](C)C/C=C/[C@@H](C)[C@@H](O)[C@@H](C)[C@@H](O)C[C@@H]1CC[C@@](C)([C@H]2CC[C@@](C)([C@@H](C)O)O2)O1` [ionomycin] as the molecule, how does the “effect on fluorescence (membrane potential) in CHO wild type cells” value [2] read?
Answer: Its value is “no effect”.

Question: Which IC50 (KCNN3 [3]) does the source give for `CN1CCN(CCCN2c3ccccc3Sc3ccc(C(F)(F)F)cc32)CC1` [trifluorperatine] here?
Answer: The IC50 was 18 µM.

Question: With `COc1cc2c3cc1Oc1cc(ccc1O)C[C@@H]1c4c(cc(OC)c(O)c4Oc4ccc(cc4)C[C@@H]3N(C)CC2)CC[N+]1(C)C` [tubocurarine] as the molecule, how does the “block of SK-channels, potency” value (SK-channels) read?
Answer: The value was “lesser potency compared to the toxins”.
